This is an account of results in PMC5342526, “Identification of Bisindolylmaleimide IX as a potential agent to treat drug-resistant BCR-ABL positive leukemia” (Oncotarget, 2016).

The subject of data set [1] is DNA topoisomerase. As to the kind of experiment: in vitro DNA relaxation reaction with BaF3 cell lysates. The format is biochemical, murine. The note with it: 0, 2, 4 or 8 μM, pBluescript. As for the experimental part:
Figure 1 Identification of Bisindolylmaleimide IX as a genotoxic agent and a topoisomerase inhibitor A. The structures of Bisindolylmaleimide IX. B. Bisindolylmaleimide IX induced p53 expression in MEFs and HCT116 cells. Upper panel: primary MEFs were treated with 2.5 μM Bisindolylmaleimide IX for different periods of time and the cells were collected. The levels of p53 were determined by western blot. Bottom panel: HCT116 cells were treated with 2.5 μM Bisindolylmaleimide IX for different periods of time and the cells were collected. The levels of p53 were determined by western blot. C. Bisindolylmaleimide IX induced formation of DNA damage foci for γH2AX and p-Atm in MEFs. Primary MEFs were pretreated with caffeine or solvent for 2 hrs and then with 2.5 μM of Bisindolylmaleimide IX, Bisindolylmaleimide I, or Enzastaurin for 4 more hrs. γH2AX and p-Atm were detected with immunofluorescent staining using specific antibodies. D. Bisindolylmaleimide IX inhibited the topoisomerase activity assayed with pBluescript. DNA samples of pBluescript were incubated with cell lysates of MEFs, which were treated with 0, 4 or 8 μM Bisindolylmaleimide IX before being harvested. DNA samples were analyzed on agarose gels. […] DNA samples of pBluescript were incubated with cell lysates of BaF3 in the presence of 0, 2, 4 or 8 μM Bisindolylmaleimide IX. DNA samples were analyzed on agarose gels. […]

In data set [2] the test system is MEFs and HCT116 cells. Briefly: Activation of Atm and Chk2 (DNA damage response), western blot. It is filed as cell-based. As to conditions: 4 hrs, phosphorylation of Atm and Chk2.
Data set [3] has as its system tumors derived from BCR-ABL-expressing BaF3 cells. Briefly: Subcutaneous solid tumor model in nude mice. It is filed as in vivo, mouse. The note with it: 4 mg/kg. As for the experimental part:
(§1) For solid tumor models, the mice were injected with 4 mg / kg of Bisindolylmaleimide IX or solvent. The length (L) and width (W) of the tumor were measured by a digital caliper and expressed as tumor volume (0.5 L×W^2, mm^3). The body weight and the lifespan of the mice with intravenous injection of BaF3 cells were monitored every day. For B-Raf knockdown, lentivirus-mediated expressing shRNA against B-Raf was used.

Data set [4] has as its system tumors derived from T315I BCR-ABL-expressing BaF3 cells. As to the kind of experiment: Subcutaneous solid tumor model in nude mice. The note with it: 4 mg/kg. The format is in vivo, mouse. The protocol: as §1
The test system of data set [5] is intravenously injected BCR-ABL positive BaF3 cells. Briefly: Lifespan of nude mice after intravenous cell injection. The format is in vivo, mouse. As to conditions: 2 or 4 mg/kg every day. As for the experimental part:
as §1

Data set [6] concerns intravenously injected T315I BCR-ABL positive BaF3 cells. The description is as above. The format is in vivo, mouse. The note with it: 2 or 4 mg/kg every day. The protocol: as §1
The test system of data set [7] is BCR-ABL BaF3 cells. The note with it: BCR-ABL BaF3, 24 hrs, compared among bisindolylmaleimide derivatives.
Data set [8] has as its system primary MEFs. Briefly: Wst-1 cell survival assay.
Procedure: (§2) We then evaluated the cytotoxic effect of Bisindolylmaleimide IX in MEFs and HCT116 cells. Different doses of Bisindolylmaleimide IX were applied to the cell cultures and cell survival rates and IC50 were determined with Wst-1 assay.
(§3) To measure cell survival rates after Bisindolylmaleimide IX treatment, cells were plated at 1×10^4 in 96 well plates and cultured for overnight, which were then treated with Bisindolylmaleimide IX for 48 hrs. Cell proliferation reagent WST-1 (Roche) was added to each well and was further incubated for 4 hrs at 37°C. The absorbance was measured against a control using microplate reader at 440 nm. The reference wavelength was 630 nm.
Data set [9] relates to BCR-ABL MEF cells. Briefly: Wst-1 cell survival assay. The note with it: Mus musculus, 24 h, read-out: IC50, cell survival.
Procedure: as §2, §3
The subject of data set [10] is HCT116 cells. As to the kind of experiment: Wst-1 cell survival assay. As to conditions: HCT116, compared to other genotoxic drugs such as Itu.
Data set [11] relates to BCR-ABL in BaF3 cells. Briefly: BCR-ABL activation in cells, anti-phospho-Tyr western blot. The note with it: 4 hrs.
Procedure: BaF3 cells infected with empty retrovirus or retrovirus expressing BCR-ABL were treated with different doses of Bisindolylmaleimide IX for 4 hrs. Activation and expression of BCR-ABL were determined by western blot. Activation of BCR-ABL was determined by anti-phospho-Tyr antibodies.
Cells were lysed in TNEN buffer (50 mM Tris, 150 mM NaCl, 5 mM EDTA, 0.5% NP-40, and 0.1% Triton X-100) supplemented with 1 mM NaF, Na2VO3, 1 mM PMSF, and 1 μg/ml of aprotonin, leupeptin, and pepstatin A. Protein concentrations were determined using a Bio-Rad assay. Proteins were resolved by SDS-PAGE and transferred to polyvinylidene difluoride membranes (Millipore). […] Antibodies against p-Tyr were from Merck Millipore Corporation.

`CS(=O)(=O)O.Cn1cc(C2=C(c3cn(CCCSC(=N)N)c4ccccc34)C(=O)NC2=O)c2ccccc21` [Bisindolylmaleimide IX, 3-[1-[3-(Amidinothio)propyl]-3-indolyl]-4-(1-methyl-3-indolyl)-1H-pyrrole-2,5-dione methanesulfonate]: in data set [1], the “topoisomerase activity on addition to the in vitro DNA relaxation reaction” value was “inhibit the topoisomerase activity”. Moreover, in data set [2], the “lowest concentration able to activate the DNA damage response” value was 1.0 µM. Besides, the growth of tumors result is recorded as “significantly inhibited growth of the tumors” in data set [3] and “significantly inhibited growth of tumors” in [4]. Besides, the “lifespan of the mice” value in [5] and in data set [6] was “extend the lifespan” each time. In addition, the “cytotoxic effect (in words)” value in data set [7] is given as “most potent one”. The “cytotoxicity (in words)” value in data set [8] (MEFs, compared to other genotoxic drugs such as Itu) is “modest cytotoxicity”; in data set [10], “modest cytotoxicity”. The IC50 is 3.83 µM in [8] (Mus musculus, 24 h, read-out: IC50, cell survival) and 3.46 µM in data set [9]. Moreover, in data set [11], the “inhibitory effect on BCR-ABL activity in vivo (in cells)” value is listed as “negligible inhibitory effect”.
